Calls of active or inactive are those of the source.
Assays:
Assay type in all cases: functional, cell-based
[1] = test system: A549; test: Antiproliferative activity against resveratrol-induced human lung A549 cells at 100 nM measured after 5 days by CCK-8 assay; conditions: time 5.0 day
[2] = test system: ASTC-a-1; test: Antiproliferative activity against resveratrol-induced human lung ASTC-a-1 cells at 100 nM measured after 5 days by CCK-8 assay; conditions: time 5.0 day
[3] = test system: A549; test: Induction of apoptosis in resveratrol-induced human lung A549 cells at 100 nM assessed as increase in cleaved caspase-3 expression measured by immunoblotting method
[4] = test system: ASTC-a-1; test: Induction of apoptosis in resveratrol-induced human lung ASTC-a-1 cells at 100 nM assessed as increase in cleaved caspase-3 expression measured by immunoblotting method
[5] = test system: A549; test: Induction of apoptosis in resveratrol-induced human lung A549 cells assessed as decrease in pAkt level at Thr308 measured by immunoblotting method
[6] = test system: A549; test: Induction of apoptosis in resveratrol-induced human lung A549 cells assessed as decrease in pAkt level at Ser473 measured by immunoblotting method
[7] = test system: A549; test: Induction of apoptosis in resveratrol-induced human lung A549 cells assessed as decrease in pGSK3beta level at Ser9 measured by immunoblotting method
[8] = test system: A549; test: Induction of apoptosis in resveratrol-induced human lung A549 cells assessed as decrease in Cyclin D1 level measured by immunoblotting method
[9] = test system: A549; test: Induction of apoptosis in resveratrol-induced human lung A549 cells assessed as decrease in Cyclin E1 level measured by immunoblotting method

Measured: Activity

O=C(NC[C@H](O)CN1CCc2ccccc2C1)c1ccnc(NC2CCC2)c1
active: all assays above

Reference: ChEMBL document CHEMBL5674888, “PRMT5 Promotes Human Lung Cancer Cell Apoptosis via Akt/Gsk3β Signaling Induced by Resveratrol” (Cell Transplant, 2019)
